From the NIST ThermoML archive (doi:10.1016/j.jct.2015.07.024) come the findings set out here.

Numbers after ± are expanded uncertainties.

The conditions of this data set: Liquid, Closed cell (Static) method.

With `CC(=O)Oc1ccccc1` [phenyl ethanoate], the “vapor or sublimation pressure” value reads like this: (373.2 K) 3.5 ± 0.2 kPa; (413.2 K) 18.2 ± 0.8 kPa; (453.2 K) 66.1 ± 2.7 kPa.
`CCOC(C)=O` [ethyl acetate]: the “vapor or sublimation pressure” value stood at 205.7 ± 9 kPa (373 K), 557.1 ± 23 kPa (412.8 K) and 1222.7 ± 49 kPa (452.3 K).
In the case of `CCOC(=O)OCC` [diethyl carbonate], the “vapor or sublimation pressure” value (373 K) worked out at 45.1 ± 2.1 kPa, the “vapor or sublimation pressure” value (412.5 K) is 143 ± 5.9 kPa and the “vapor or sublimation pressure” value (452.2 K) is reported as 361 ± 15 kPa.

One may read the vapor or sublimation pressure as the equilibrium pressure above the liquid or solid.
